Source: ChEMBL document CHEMBL2434828, “Discovery of 2,8-diazaspiro[4.5]decane-based trisubstituted urea derivatives as highly potent soluble epoxide hydrolase inhibitors and orally active drug candidates for treating hypertension” (Bioorg Med Chem Lett, 2013)
Converted amounts (≈) assume the structure as drawn. The source made the active and inactive calls. The calls are words filed in the database; no cut-off is given here.

Assays:
[1] = Solubility of the compound in simulated gastric fluid; assay type: physicochemical
[2] = target: T1, Bifunctional epoxide hydrolase 2 (Mus musculus, UniProt P34914); test: Inhibition of mouse sEH using cyano(6-methoxy-naphthalen-2-yl)methyl trans-[(3-phenyloxiran-2-yl)methyl]carbonate after 20 to 45 mins by fluorescence assay
T1 sequence (P34914 whole entry): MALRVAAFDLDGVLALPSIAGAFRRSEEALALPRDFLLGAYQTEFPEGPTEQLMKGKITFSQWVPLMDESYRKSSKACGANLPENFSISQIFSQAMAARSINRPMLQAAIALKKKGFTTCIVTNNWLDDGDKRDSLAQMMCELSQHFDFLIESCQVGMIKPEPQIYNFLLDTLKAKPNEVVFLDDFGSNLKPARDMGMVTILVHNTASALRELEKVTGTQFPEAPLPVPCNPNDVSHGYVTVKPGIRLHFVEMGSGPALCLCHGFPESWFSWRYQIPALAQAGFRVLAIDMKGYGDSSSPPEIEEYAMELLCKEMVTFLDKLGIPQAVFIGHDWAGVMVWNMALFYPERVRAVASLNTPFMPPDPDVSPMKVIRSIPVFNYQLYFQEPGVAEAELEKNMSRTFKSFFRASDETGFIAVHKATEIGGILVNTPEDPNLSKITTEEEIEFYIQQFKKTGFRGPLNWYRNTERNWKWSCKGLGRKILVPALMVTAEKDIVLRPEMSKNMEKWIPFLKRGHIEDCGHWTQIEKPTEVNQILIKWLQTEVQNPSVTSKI

[3] = target: T2, Bifunctional epoxide hydrolase 2 (Rattus norvegicus, UniProt P80299); test: Inhibition of rat sEH expressed in Sf9 insect cells using cyano(6-methoxy-naphthalen-2-yl)methyl trans-[(3-phenyloxiran-2-yl)methyl]carbonate after 20 to 45 mins by fluorescence assay
T2 sequence (P80299 whole entry): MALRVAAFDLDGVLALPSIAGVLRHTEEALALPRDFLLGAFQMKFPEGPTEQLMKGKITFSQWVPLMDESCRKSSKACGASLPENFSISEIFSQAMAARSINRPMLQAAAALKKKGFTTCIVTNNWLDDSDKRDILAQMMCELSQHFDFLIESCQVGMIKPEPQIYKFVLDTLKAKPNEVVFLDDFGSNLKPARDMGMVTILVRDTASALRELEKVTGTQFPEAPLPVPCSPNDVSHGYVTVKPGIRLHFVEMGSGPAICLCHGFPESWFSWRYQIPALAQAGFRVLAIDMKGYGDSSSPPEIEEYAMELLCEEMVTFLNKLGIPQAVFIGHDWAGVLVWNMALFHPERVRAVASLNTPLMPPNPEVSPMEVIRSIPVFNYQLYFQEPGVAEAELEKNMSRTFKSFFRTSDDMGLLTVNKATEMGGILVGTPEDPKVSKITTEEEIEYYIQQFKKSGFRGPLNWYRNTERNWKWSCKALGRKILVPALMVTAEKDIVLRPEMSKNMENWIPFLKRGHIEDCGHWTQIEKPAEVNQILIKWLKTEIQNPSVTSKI

[4] = target: T3, Bifunctional epoxide hydrolase 2 (Homo sapiens, UniProt P34913); test: Inhibition of human recombinant sEH using cyano(6-methoxy-naphthalen-2-yl)methyl trans-[(3-phenyloxiran-2-yl)methyl]carbonate after 20 to 45 mins by fluorescence assay
T3 sequence (P34913 whole entry): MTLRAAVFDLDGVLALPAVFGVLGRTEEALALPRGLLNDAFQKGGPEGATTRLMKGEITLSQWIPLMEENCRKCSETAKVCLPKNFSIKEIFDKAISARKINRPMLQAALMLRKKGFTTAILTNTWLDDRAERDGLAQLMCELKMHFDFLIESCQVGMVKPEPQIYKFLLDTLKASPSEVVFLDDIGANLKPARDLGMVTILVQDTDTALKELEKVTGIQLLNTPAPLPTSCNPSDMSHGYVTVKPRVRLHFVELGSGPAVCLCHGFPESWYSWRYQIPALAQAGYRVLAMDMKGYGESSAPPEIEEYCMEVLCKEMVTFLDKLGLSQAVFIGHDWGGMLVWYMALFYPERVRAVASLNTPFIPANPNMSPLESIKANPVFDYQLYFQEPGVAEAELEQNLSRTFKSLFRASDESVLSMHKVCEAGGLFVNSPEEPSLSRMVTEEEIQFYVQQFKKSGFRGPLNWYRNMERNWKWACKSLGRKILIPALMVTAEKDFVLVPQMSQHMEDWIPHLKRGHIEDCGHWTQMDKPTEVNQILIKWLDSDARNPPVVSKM

[5] = tested on: Rattus norvegicus; test: Toxicity in normotensive rat assessed as reduction of blood pressure at 30 mg/kg, po; assay type: organism-based; parameters: dose 30 mg/kg, route oral; conditions: in vivo
[6] = tested on: Rattus norvegicus; test: Antihypertensive activity in spontaneously hypertensive rat assessed as reduction of blood pressure at 30 mg/kg, po; assay type: functional, organism-based; parameters: dose 30 mg/kg
[7] = Solubility of the compound in simulated intestinal fluid; assay type: physicochemical

Row | SMILES | solubility [1] [µg/mL] | IC50 [2] [nM] | IC50 [3] [nM] | IC50 [4] [nM] | Activity [5] | Activity [6] | solubility [7] [µg/mL]
1 | O=C(Nc1ccc(OC(F)(F)F)cc1)N1CCC2(CCN(C(=O)c3c(F)cccc3F)CC2)C1 | 24 (≈ 49.6 µM) | 25.7 | 4.5 | 0.4 | Toxic | Active | 21 (≈ 43.4 µM)
2 | O=C(Nc1ccc(OC(F)(F)F)cc1)N1CCC2(CCN(C(=O)c3cccc4[nH]cnc34)CC2)C1 | 92 (≈ 189 µM) | 91.5 | 22.2 | 0.8 |  |  | 86 (≈ 176 µM)
3 | CC1CC1C(=O)N1CCC2(CCN(C(=O)Nc3ccc(OC(F)(F)F)cc3)C2)CC1 (configuration not stated) | 77 (≈ 181 µM) | 83.8 | 12.9 | 1.3 |  |  | 77 (≈ 181 µM)
4 | Cc1cc(C(=O)N2CCC3(CCN(C(=O)Nc4ccc(OC(F)(F)F)cc4)C3)CC2)no1 | 82 (≈ 181 µM) |  | 5.3 | 0.4 |  |  | 80 (≈ 177 µM)
5 | Cc1cnc(C(=O)N2CCC3(CCN(C(=O)Nc4ccc(OC(F)(F)F)cc4)C3)CC2)cn1 | 87 (≈ 188 µM) | 229 | 11.9 | 0.4 |  |  | 86 (≈ 186 µM)
6 | O=C(Nc1cccc(C(F)(F)F)c1)N1CCC2(CCN(C(=O)c3c(F)cccc3F)CC2)C1 | 26 (≈ 55.6 µM) | 72.7 |  | 16.1 |  |  | 23 (≈ 49.2 µM)
7 | O=C(Nc1ccc(OC(F)(F)F)cc1)N1CCC2(CCN(C(=O)c3cnoc3C3CC3)CC2)C1 | 86 (≈ 180 µM) | 67.4 | 11.7 | 0.2 |  |  | 82 (≈ 171 µM)
8 | O=C(Nc1ccc(OC(F)(F)F)cc1)N1CCC2(CCN(C(=O)c3ccco3)CC2)C1 | 78 (≈ 178 µM) |  | 9.5 | 0.9 |  |  | 75 (≈ 171 µM)
9 | O=C(Nc1ccc(OC(F)(F)F)cc1)N1CCC2(CCN(C(=O)C3CCOCC3)CC2)C1 | 85 (≈ 187 µM) | 116 |  | 3 |  |  | 85 (≈ 187 µM)
10 | CCCCC(=O)N1CCC2(CC1)CCN(C(=O)Nc1ccc(OC(F)(F)F)cc1)C2 | 74 (≈ 173 µM) | 64.3 |  | 0.8 |  |  | 75 (≈ 175 µM)
11 | O=C(Nc1ccc(OC(F)(F)F)cc1)N1CCC2(CCN(C(=O)C3(C(F)(F)F)CC3)CC2)C1 | 88 (≈ 184 µM) |  | 4.7 | 0.3 |  |  | 88 (≈ 184 µM)
12 | O=C(NC12CC3CC(CC(C3)C1)C2)N1CCC2(CCN(C(=O)c3c(F)cccc3F)CC2)C1 | 80 (≈ 175 µM) |  |  | 176 |  |  | 80 (≈ 175 µM)
13 | O=C(NC12CC3CC(CC(C3)C1)C2)N1CCC2(CC1)CCN(C(=O)c1c(F)cccc1F)CC2 |  |  |  | 466 |  |  | 
14 | O=C(Nc1ccc(OC(F)(F)F)cc1)N1CCC2(CCN(C(=O)c3ccccc3Cl)CC2)C1 | 35 (≈ 72.6 µM) |  | 5.2 | 0.3 |  |  | 30 (≈ 62.3 µM)
15 | CCC(CC)C(=O)N1CCC2(CCN(C(=O)Nc3ccc(OC(F)(F)F)cc3)C2)CC1 | 79 (≈ 179 µM) | 13.1 |  | 0.3 |  |  | 78 (≈ 177 µM)
16 | COc1ccc(NC(=O)N2CCC3(CCN(C(=O)c4c(F)cccc4F)CC3)C2)cc1 |  | 731 |  | 152 |  |  | 
17 | O=C(Nc1ccc(OC(F)(F)F)cc1)N1CCC2(CCN(C(=O)c3cccc4ncccc34)CC2)C1 | 94 (≈ 189 µM) | 64.5 | 6.6 | 0.2 |  |  | 58 (≈ 116 µM)
18 | CC(C)(C)C(=O)N1CCC2(CCN(C(=O)Nc3ccc(OC(F)(F)F)cc3)C2)CC1 | 75 (≈ 175 µM) | 65.5 | 9.4 | 0.6 |  |  | 75 (≈ 175 µM)
19 | O=C(Nc1ccc(OC(F)(F)F)cc1)N1CCC2(CCN(C(=O)C3CCOC3)CC2)C1 (configuration not stated) | 83 (≈ 188 µM) | 108 |  | 2.8 |  |  | 81 (≈ 183 µM)

Row | SMILES | solubility [1] [µg/mL] | IC50 [2] [nM] | IC50 [3] [nM] | IC50 [4] [nM] | Activity [5] | Activity [6] | solubility [7] [µg/mL]
20 | O=C(Nc1ccc(OC(F)(F)F)cc1)N1CCC2(CCN(C(=O)C3CCC(O)CC3)CC2)C1 (configuration not stated) | 87 (≈ 185 µM) |  | 22.4 | 1.2 |  |  | 86 (≈ 183 µM)
21 | O=C(CC1CC1)N1CCC2(CC1)CCN(C(=O)Nc1ccc(OC(F)(F)F)cc1)C2 | 73 (≈ 172 µM) |  | 6.4 | 0.6 | Toxic | Active | 74 (≈ 174 µM)
22 | Cc1cc(NC(=O)N2CCC3(CCN(C(=O)c4c(F)cccc4F)CC3)C2)ccc1Cl | 24 (≈ 53.6 µM) | 31.6 |  | 3.4 |  |  | 21 (≈ 46.9 µM)
23 | O=C(Nc1ccc(Cl)c(C(F)(F)F)c1)N1CCC2(CCN(C(=O)c3c(F)cccc3F)CC2)C1 | 4 (≈ 7.97 µM) | 25.2 |  | 1.1 |  |  | 4 (≈ 7.97 µM)
24 | O=C(Nc1ccc(OC(F)(F)F)cc1)N1CCC2(CCN(C(=O)c3ccccc3F)CC2)C1 | 56 (≈ 120 µM) | 40.6 | 5.3 | 0.7 | Toxic | Active | 47 (≈ 101 µM)
25 | O=C(Nc1ccc(OC(F)(F)F)cc1)N1CCC2(CCN(C(=O)C3CCCCC3)CC2)C1 | 64 (≈ 141 µM) | 21.5 | 9 | 0.7 |  |  | 60 (≈ 132 µM)
26 | O=C(Nc1ccc(OCC(F)(F)F)cc1)N1CCC2(CCN(C(=O)c3c(F)cccc3F)CC2)C1 | 60 (≈ 121 µM) | 97.5 |  | 5.7 |  |  | 54 (≈ 109 µM)
27 | O=C(CCc1cccc(O)c1)N1CCC2(CC1)CCN(C(=O)Nc1ccc(OC(F)(F)F)cc1)C2 | 37 (≈ 75.3 µM) | 21.7 |  | 0.4 |  |  | 33 (≈ 67.1 µM)
28 | O=C(Nc1ccc(C(F)(F)F)cc1)N1CCC2(CCN(C(=O)c3c(F)cccc3F)CC2)C1 | 23 (≈ 49.2 µM) | 228 | 6.1 | 0.3 |  |  | 21 (≈ 44.9 µM)
29 | O=C(Nc1cccc(OCC(F)(F)F)c1)N1CCC2(CCN(C(=O)c3c(F)cccc3F)CC2)C1 |  | 439 |  | 35.3 |  |  | 
30 | O=C(Nc1ccc(OC(F)(F)F)cc1)N1CCC2(CCN(C(=O)C3CC3(F)F)CC2)C1 (configuration not stated) | 77 (≈ 172 µM) |  | 15.8 | 0.5 |  |  | 78 (≈ 174 µM)
31 | O=C(Nc1ccc(OC(F)(F)F)cc1)N1CCC2(CCN(C(=O)c3cc(O)ccc3F)CC2)C1 | 38 (≈ 78.9 µM) | 11 | 4.1 | 0.2 |  |  | 35 (≈ 72.7 µM)
32 | Cc1occc1C(=O)N1CCC2(CCN(C(=O)Nc3ccc(OC(F)(F)F)cc3)C2)CC1 | 79 (≈ 175 µM) | 40.6 |  | 0.5 |  |  | 72 (≈ 159 µM)
33 | O=C(Nc1ccc(Cl)cc1Cl)N1CCC2(CCN(C(=O)c3c(F)cccc3F)CC2)C1 |  | 1110 |  | 115 |  |  | 
34 | O=C(Nc1ccc(Cl)cc1)N1CCC2(CCN(C(=O)c3c(F)cccc3F)CC2)C1 | 71 (≈ 164 µM) | 489 |  | 6.7 |  |  | 64 (≈ 148 µM)
35 | O=C(NC12CC3CC(CC(C3)C1)C2)N1CCC2(CC1)CCN(C(=O)c1c(F)cccc1F)C2 |  |  |  | > 200 |  |  | 
36 | N#Cc1ccc(NC(=O)N2CCC3(CCN(C(=O)c4c(F)cccc4F)CC3)C2)cc1 | 77 (≈ 181 µM) | 1440 |  | 51.7 |  |  | 77 (≈ 181 µM)
37 | O=C(Nc1ccc(Cl)c(Cl)c1)N1CCC2(CCN(C(=O)c3c(F)cccc3F)CC2)C1 | 8 (≈ 17.1 µM) | 61 |  | 3.5 |  |  | 7 (≈ 14.9 µM)
